This note sets out measurements from ChEMBL document CHEMBL1201862, “PubChem BioAssay data set” (2004).

Each structure is given as a SMILES string.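 Exposure lasted 48 hours, with cells grown in 96-well plates and compounds tested at five concentrations. GI50 = concentration required for 50% inhibition of growth.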 Active and inactive are the calls of the source. No stated cut-off is given here; in the data, active = GI50 up to about 1.1 µM and inactive = higher. Some results are limits rather than exact numbers.

Test systems include CAKI-1; CCRF-CEM; HCT-15; HT-29; LOX IMVI; MOLT-4; NCI-H23; NCI-H460; NCI-H522; OVCAR-3; SF-295; SF-539; SK-MEL-28; SK-MEL-2; SNB-19; SR; TK-10; UO-31; UACC-62; SK-OV-3.
Experiment in all cases: inhibition of tumour cell growth, NCI panel, 48 h

`O=C(O)c1c([N+](=O)[O-])cc(C(F)(F)F)cc1[N+](=O)[O-]`: the GI50 is > 100 µM (inactive) in the assay with CAKI-1; > 100 µM (inactive) in the assay with CCRF-CEM; above 100 µM in the assay with HCT-15; > 100 µM (inactive) in the assay with HT-29; > 100 µM (inactive) in the assay on LOX IMVI; > 100 µM (inactive) with MOLT-4. The GI50 in the assay with NCI-H23, in the assay on NCI-H460, in the assay with NCI-H522, in the assay with OVCAR-3, with SF-295 and in the assay on SF-539 was > 100 µM (inactive) throughout. Also, the GI50 with SK-MEL-28, in the assay on SK-MEL-2, in the assay with SNB-19, in the assay on SR, in the assay on TK-10 and in the assay with UO-31 was > 100 µM (inactive) in each case.

In the case of `O=C1O[C@H](c2ccccc2)[C@@H]2CC3(CCN12)OCCO3`, the GI50 with CAKI-1 was > 100 µM (inactive); in the assay with CCRF-CEM, > 100 µM (inactive); with HCT-15, above 100 µM; in the assay on HT-29, > 100 µM (inactive); with LOX IMVI it was > 100 µM (inactive); in the assay with MOLT-4 it was > 100 µM (inactive). Moreover, the GI50 with NCI-H23 was 68.9 µM (inactive); in the assay with NCI-H460, > 100 µM (inactive); in the assay with NCI-H522, 2.2 µM (inactive); in the assay on OVCAR-3, > 100 µM (inactive); with SF-295 it was > 100 µM (inactive); with SF-539, > 100 µM (inactive). The GI50 in the assay on SK-MEL-28, with SK-MEL-2, with SNB-19, in the assay on SR, in the assay on TK-10 and with UACC-62 was > 100 µM (inactive) in each case. For the same compound, the GI50 in the assay with UO-31 is > 100 µM (inactive).

As for `O=C1/C(=C/C=C/c2ccccc2)CCC1CNc1ccccc1` (stereo not given), the GI50 is 40.2 µM (inactive) in the assay with CAKI-1; 3.48 µM (inactive) in the assay on CCRF-CEM; 18.4 µM in the assay on HCT-15; 24.7 µM (inactive) in the assay on HT-29; 18.6 µM (inactive) with LOX IMVI; 20.3 µM (inactive) in the assay on MOLT-4. Moreover, the GI50 was 27.7 µM (inactive) with NCI-H23; > 88.7 µM (inactive) in the assay on NCI-H460; 9.62 µM (inactive) in the assay on NCI-H522; 23.7 µM (inactive) in the assay on OVCAR-3; > 100 µM (inactive) in the assay on SF-295; > 54.5 µM (inactive) in the assay on SF-539. The GI50 with SK-MEL-28 was 44.6 µM (inactive); with SK-OV-3 it was > 100 µM (inactive); in the assay with SNB-19 it was > 55 µM (inactive); in the assay with SR it was 3.52 µM (inactive); with TK-10, 33 µM (inactive); in the assay with UACC-62, 50.4 µM (inactive). Further, the GI50 in the assay with UO-31 was 59.8 µM (inactive).

As to `O=C(Cc1ccccc1)N/N=C(/c1nc2ccc([N+](=O)[O-])cc2nc1O)C(O)c1ccccc1Cl` (stereo not given), the GI50 with CAKI-1 is 46.6 µM (inactive); with CCRF-CEM it was > 100 µM (inactive); in the assay on HCT-15 it was 40.6 µM; in the assay with HT-29, > 100 µM (inactive); with LOX IMVI it was > 100 µM (inactive); in the assay on MOLT-4, 70 µM (inactive). Besides, the GI50 was > 100 µM (inactive) in the assay with NCI-H23; > 100 µM (inactive) with NCI-H460; 6.28 µM (inactive) with NCI-H522; > 100 µM (inactive) in the assay on SF-295; > 100 µM (inactive) with SF-539; > 100 µM (inactive) in the assay with SK-MEL-28. Besides, the GI50 in the assay on SK-MEL-2, with SK-OV-3, with SR, with TK-10, in the assay with UACC-62 and in the assay with UO-31 was > 100 µM (inactive) throughout.

`CSc1cc(Cl)c(C)cc1S(=O)(=O)NC(=O)NNc1ccccn1`: the GI50 is > 100 µM (inactive) in the assay on CAKI-1; > 100 µM (inactive) with CCRF-CEM; above 100 µM in the assay on HCT-15; > 100 µM (inactive) in the assay with HT-29; > 100 µM (inactive) with LOX IMVI; > 100 µM (inactive) in the assay with MOLT-4. The GI50 in the assay with NCI-H460, in the assay on NCI-H522, in the assay on OVCAR-3, in the assay with SF-295, in the assay with SF-539 and in the assay on SK-MEL-28 was > 100 µM (inactive) throughout. The GI50 with SK-MEL-2, in the assay on SK-OV-3, in the assay on SNB-19 and in the assay with SR was > 100 µM (inactive) each time.

On to `N#CC1CC2(C1)OCCS2` (stereo not given), for which the GI50 is > 100 µM (inactive) in the assay on CAKI-1; > 100 µM (inactive) in the assay with CCRF-CEM; above 100 µM in the assay on HCT-15; > 100 µM (inactive) in the assay on HT-29; > 100 µM (inactive) in the assay with LOX IMVI; > 100 µM (inactive) in the assay with MOLT-4. Also, the GI50 in the assay on NCI-H23, with NCI-H460, with NCI-H522, with OVCAR-3, in the assay with SF-295 and in the assay with SF-539 was > 100 µM (inactive) each time. The GI50 with SK-MEL-28, in the assay with SK-MEL-2, in the assay on SNB-19, in the assay on SR, in the assay with TK-10 and in the assay on UACC-62 was > 100 µM (inactive) each time. In addition, in the assay on UO-31, the GI50 was > 100 µM (inactive).

As for `CN(C)CCCNC(=S)S`, the GI50 in the assay on CAKI-1 was > 100 µM (inactive); in the assay with CCRF-CEM it was > 100 µM (inactive); in the assay with HCT-15, above 100 µM; in the assay on HT-29 it was > 100 µM (inactive); in the assay with LOX IMVI, > 100 µM (inactive); in the assay with MOLT-4 it was > 100 µM (inactive). Further, the GI50 in the assay on NCI-H23, in the assay on NCI-H460, with NCI-H522, with OVCAR-3, in the assay with SF-295 and with SF-539 was > 100 µM (inactive) throughout. Besides, the GI50 with SK-MEL-28, in the assay on SK-MEL-2, in the assay on SK-OV-3, in the assay with SNB-19, in the assay on SR and with TK-10 was > 100 µM (inactive) each time.

`Oc1ccc(-c2nc3cc(C(F)(F)F)ccc3n2CC2CCCN3CCCCC23)cc1` (stereo not given): the GI50 in the assay on CAKI-1 was 18 µM (inactive); in the assay with CCRF-CEM, 14.7 µM (inactive); in the assay with HCT-15, 16.1 µM; in the assay with HT-29, 13.4 µM (inactive); in the assay with LOX IMVI, 15.4 µM (inactive); in the assay on MOLT-4, 15 µM (inactive). The GI50 in the assay with NCI-H23 is 16.5 µM (inactive); in the assay with NCI-H460, 15.1 µM (inactive); in the assay with NCI-H522, 15.4 µM (inactive); in the assay on OVCAR-3, 13 µM (inactive); in the assay on SF-295 it was 13.4 µM (inactive); with SF-539, 18.7 µM (inactive). In addition, the GI50 in the assay on SK-MEL-28 was 16.1 µM (inactive); with SK-MEL-2 it was 14.7 µM (inactive); in the assay with SK-OV-3, 12.6 µM (inactive); in the assay with SR, 16.6 µM (inactive); in the assay on TK-10 it was 16.9 µM (inactive); in the assay on UO-31, 11.7 µM (inactive).
